# Patent publication US9724422B2, “Human lactoferrin derived peptide for use as an antigen masking agent” (Evonik Roehm GmbH, priority 2010, dated 2017)
# Tests used:
# IgG immuno response = assay: Total IgG by ELISA in rats treated with bacterial lysate, hLf fragment or their combination; format: in vivo
# Protocol: Bacterial lysate: Klebsiella pneumoniae CECT 141; 12.000 million bacteria/mL (ten times the final concentration), Standard non-glycerinated formulation, without phenol hLF fragment, […] (SEQ ID NO: 1) oxidised form, as lyophilisate product; dosed in vials of 50 mg each, in 25 mL vials, to be reconstituted and used as stock solution for the length of the assay. Once reconstituted, keep cooled (4° C.)
# Reconstitution of the hLF stock solution was performed by reconstitution of the 50 mg hLF fragment in a vial by addition of 20 mL of PBS. It was ensured a complete, proper reconstitution to a clear, homogeneous, particle-free solution. The vial was gently shaken by repeated inversion of the closed vial. The result was the hLF-stock solution for the trial: nominal concentration 2.5 mg/mL.
# The hLF dilution for the animal trial was performed daily. For this 1 mL of the reconstituted hLF stock solution were transferred into a new 25 mL vial, followed by adding 21.5 mL of PBS and carefully mixing by repeated inversions of the closed vial to avoid foam formation. The result was the daily stock dilution, nominal concentration 0.1 mg/ml.
# 4.5 ml of the daily hLf dilution were transferred to a suitable vial (5 ml capacity or bigger), followed by adding 0.5 ml of the 12,000 million bacteria/mL bacterial lysate, and carefully mixing by repeated inversions of the closed vial to avoid foam formation. The result was 5 ml of A+B vaccine, 1200 million bacteria/ml, 0.1 mg hLf fragment/ml, ensuring the ratio 12:1.
# 4.5 ml of the daily hLf dilution were transferred to a suitable vial (5 ml capacity or bigger), followed by adding 0.5 ml of PBS and carefully mixing by repeated inversions of the closed vial and avoid foam formation. The result was 5 ml of 0.1 mg/ml hLf fragment solution.
# 0.5 ml of the bacterial lysate (12,000 million bacteria/ml) were transferred to a suitable vial (5 ml capacity or bigger), followed by adding 4.5 ml of PBS, and carefully mixing by repeated inversions of the closed vial and avoid foam formation. […]
# The parameter to be measured is total IgG. […]
# Albumin = biological target: T1, Albumin (Bos taurus, UniProt P02769); assay: Diffusion kinetics of hLf fragment mixed with protein, time-correlation confocal microscopy with fluorescent labels; format: binding; details: protein I
# T1 construct: purchased
# T1 sequence (P02769 25-607): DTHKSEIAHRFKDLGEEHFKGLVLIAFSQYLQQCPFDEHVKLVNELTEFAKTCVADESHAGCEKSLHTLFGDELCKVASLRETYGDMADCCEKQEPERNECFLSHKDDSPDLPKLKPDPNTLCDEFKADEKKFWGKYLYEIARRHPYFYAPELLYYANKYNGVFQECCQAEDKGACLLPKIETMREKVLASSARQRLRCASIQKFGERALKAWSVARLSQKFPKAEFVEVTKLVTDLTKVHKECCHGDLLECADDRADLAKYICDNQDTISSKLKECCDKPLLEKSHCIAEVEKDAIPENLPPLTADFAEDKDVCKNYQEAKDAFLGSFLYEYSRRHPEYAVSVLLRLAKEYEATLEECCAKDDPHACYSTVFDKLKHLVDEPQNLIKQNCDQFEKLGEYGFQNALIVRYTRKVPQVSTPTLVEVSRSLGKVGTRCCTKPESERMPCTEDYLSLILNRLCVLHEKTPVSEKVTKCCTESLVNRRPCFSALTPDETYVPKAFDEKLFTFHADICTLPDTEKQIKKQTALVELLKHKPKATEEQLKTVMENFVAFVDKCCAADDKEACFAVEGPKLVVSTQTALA
# Text: (§1) 3 different classes of cell-culture and blood derived naturally glycosylated proteins were mixed together in a native, that is, physiologically similar standard electrolyte buffer with the concentration shown in the Table with the same 22-mer of the human-lactoferrin peptides described above (using Sequence […] (SEQ ID NO: 1)).
# (§2) The protein I is Albumin a blood protein fraction, known in its recombinant human version or as blood-product, protein II is a selective IgG antibody. Both from commercial sources. hLf as the reference moves as “free” in the volume element of the focus of the microscope whereas about 4% or 15% respectively of the fragment are unspecifically bound and moves slower.
# IgG antibody = assay: as above; format: binding; details: protein II, selective IgG antibody
# Text: as §1, §2
# [1] = Zeta potential of particles measured with Zetasizer; format: physicochemical; details: PBS pH 7.4, FIG. 2
# Protocol: (§3) Malvern Zetasizer Nano ZS90; Size parameters:
# (§4) Material: Protein RI: 1.45 Absorption: 0.00, Dispersant: Water 25° C.: 0.8872 cP RI: 1.330; 37° C.: 0.6864 cP RI: 1.330, Cell: DTS 1060C: Clear disposable zeta cell
# (§5) Measurement: Automatic 3 runs, positioning method: seek for optimum position, automatic attention selection, analysis model: general purpose
# Zeta parameters: Dielectric constant: 78.5 at 25° C. and 74.4 at 37° C.
# Model: Smoluchowski F(KA)value: 1.5, measurement: automatic 3 runs Automatic attention selection
# (§6) Peptide oxidation: The peptide was dissolved to a concentration below 1 mM (2.75 mg/mL) in phosphate buffered saline (PBS), pH 7.4. (Ph. Eur.), e.g., 5 mg in 10 mL (=0.5 mg/mL). The solution was purged with pure oxygen for 5 minutes at 37° C. Incubate for 2 h at 37° C.
# (§7) For the bacterial lysate dilution 1 mL of bacterial cell lysate were diluted up to 10 mL with PBS pH 7.4. (Ph. Eur.).
# (§8) Attachment to the lysate particles was achieved by adding 1 ml bacterial lysate (=1.2 mg E. coli) with 0.097714286 mg hLF.
# (§9) 20 μL of a 0.5 mg/mL solution of peptide were added to 1 mL of the previously diluted vaccine (0.12 mg/mL) and incubated 2 hours under low stirring, 100-150 rpm, at 4° C., preventing any foam building
# [2] = Particle size (diameter) measured with Zetasizer; format: physicochemical; details: PBS pH 7.4, FIG. 1
# Protocol: as §3, §4, §5, §6, §7, §8, §9
# [3] = Diffusion kinetics of free hLf fragment (reference), time-correlation confocal microscopy with fluorescent labels; format: physicochemical; details: hLf alone as reference
# Text: as §1, §2
sequence,measurement,setting,value
"KCFQWQRNMRKVRGPPVSCIKR (listed as Homo sapiens) [hLf, human lactoferrin derived peptide, 22-mer, used as antigen masking agent]",Variation in the IgG levels over time,"IgG immuno response; independent of the mode of administration (i.p. or intragastric), days 0-27",does not appear to induce any effect on IgG levels over time
same,IgG levels compared with hLf+extract group,"IgG immuno response; intragastric, day 6",superior IgG levels
same,IgG levels compared with control group,"IgG immuno response; intraperitoneal, day 6 to day 27",no statistically significant difference
same,fragment unspecifically bound (moves slower),Albumin,about 4%
same,fragment unspecifically bound (moves slower),IgG antibody,~15%
same,Zeta potential (surface charge of particles),[1],overall positive charge
same,Particle size (aggregation),[2],Aggregation is prone to occur
same,TauD1,[3],33 us
same,TauD2,[3],1419 us
same,f1,[3],99%
